In patent publication US4975451A, “Insecticidal cyclopropyl di(aryl) 2-butenes” (FMC Corporation, priority 1989, dated 1990):
Values after ≈ are worked out from the molar mass of the structure shown.

What was measured:
[1] = system: pea aphid; assay: Foliar evaluation, pea aphid; assay type: in vivo, Acryrthosiphon pisum; conditions: Acyrthosiphon pisum, 48 hours, read-out: % Kill PA; for mortality at 100 ppm: rate 100 ppm; for mortality at 500 ppm: rate 500 ppm
Procedure: (§1) The insecticidal activity of the pyrethroid-like compounds of this invention as identified in Table 1, appended, was evaluated as follows:
(§2) Compounds within the scope of this invention were tested by foliar application at various concentrations in aqueous solutions containing 10% (volume/volume) acetone and water. Insect species utilized included the cabbage looper (Trichoplusia ni), Mexican bean beetle (Epilachna varivestis), pea aphid (Acryrthosiphon pisum), tobacco budworm (Heliothis virescens) and twospotted spider mite (Tetranychus urticae).
(§3) For all insects except the pea aphid, pinto beans (Phaseolus vulgaris) plants were treated with the test solutions. The test solutions were applied with a sprayer to the upper and lower surfaces of the plant leaves to runoff. The plants were then allowed to dry and were severed at the base of the stem before being placed in cups. Ten second instar individuals of the appropriate insect species, except the tobacco budworm, were placed in each cup and the cup covered. Tests with the tobacco budworm used four replicates with each replicate containing five second instar tobacco budworms. In all tests, mortality was read 48 hours later.
In the case of the pea aphid, fava bean (Vicia faba) was substituted for pinto bean. The treated, potted plants were placed in cups infested with ten individuals and covered. Mortality was read 48 hours later.

[2] = system: twospotted spider mite; assay: Foliar acaricidal test, twospotted spider mite (susceptible); assay type: in vivo; conditions: Tetranychus urticae, 48 hours, read-out: % Kill TSM-S; for mortality at 100 ppm: rate 100 ppm; for mortality at 500 ppm: rate 500 ppm
Procedure: as §1, §2
Acaricidal tests were performed using the following procedure: Leaves infested with adult twospotted spider mites (Tetranvchus urticae) were removed from culture plants and cut into segments containing 50-75 female mites. Each segment was placed on the upper leaf surface of a whole pinto bean plant. After the mites had migrated to the under surfaces of the leaves, the leaf segments used to infest were removed, and each plant was sprayed with test chemicals as described above. After the plants had dried, the entire plant and pot were placed in metal trays in a hood, a supply of water in the tray keeping the plants turgid. After 48 hours the living and dead mites were counted, and percent mortality was calculated.

[3] = system: cabbage looper; assay: Foliar evaluation, cabbage looper; assay type: in vivo; conditions: Trichoplusia ni, 48 hours, read-out: % Kill CL; for mortality at 100 ppm: rate 100 ppm; for mortality at 500 ppm: rate 500 ppm
Procedure: as §1, §2, §3

[4] = system: Mexican bean beetle; assay: Foliar evaluation, Mexican bean beetle; assay type: in vivo; conditions: Epilachna varivestis, 48 hours, read-out: % Kill MBB; for mortality at 100 ppm: rate 100 ppm
Procedure: as §1, §2, §3

[5] = Fish toxicity, tilapia; assay type: in vivo; conditions: water; Tilapia (Oreochromis niloticus), 48 hour test
Procedure: Compounds of the present invention were tested for toxicity to fish using one inch long tilapia (Oreochromis niloticus). Prior to the test the tilapia were acclimated for one week in an aquarium, during which time they were fed with a ration of rice bran and pelletized hog feed. The water in the aquarium was changed daily with distilled water.
Stock solutions of each of the test chemicals were prepared by dissolving the weighed technical material in acetone and adding distilled water to provide a 1% acetone in water solution.
The test solutions were prepared by diluting the appropriate amount of a stock solution to 25 mL with distilled water. The appropriate amount of stock solution was determined for the concentration required in a final volume of 800 mL of test solution. The test chemicals were tested in triplicate at concentrations ranging from 0.005 ppm to 20 ppm. The actual concentrations of the test chemicals needed to determine LC50 values were determined by fish toxicity-range of application studies prior to the LC50 test. Each 25 mL test chemical solution was added to a one liter aquarium containing 500 mL of 0.01% (v/v) ethylene glycol in water. The aquariums were shaken gently and then allowed to stand for one hour. After this time the tilapia were added by first placing five fish in a container with 275 mL of distilled water and then pouring the water and fish into each aquarium. The dead and live fish were counted after 24 and 48 hours. Any fish observed to be dead was removed from its aquarium immediately. Upon completion of the 48 hour test period, the lethal concentration of each compound tested that would give 50% mortality to the tilapia was determined.

[6] = system: southern corn rootworm; assay: Soil evaluation, southern corn rootworm; assay type: in vivo, Diabrotica undecimounctata Howardi; conditions: rate 7.5 ppm, 48 hours, read-out: Initial % Kill SCR
Procedure: Soil evaluation of insecticidal activity of test compounds were conducted against the southern corn rootworm (Diabrotica undecimounctata Howardi). A 0.25 ml aliquot of a stock solution containing 64 mg of the candidate insecticide in 4.0 ml of acetone was pipetted into 41 mL of distilled water containing 0.1% octylphenoxypolyethoxyethanol emulsifier. […] In all cases, four mL of each test solution was pipetted into a 4 ounce specimen cup containing two two-day-old corn sprouts completely covered by 26 grams of dry sandy soil. The treated soil in each cup was allowed to stand uncovered in a hood to evaporate the acetone. Each cup was capped and the soil in each cup was mixed thoroughly. The cap of each cup was removed, and ten second instar southern corn rootworm larvae were added to each cup. The cups were each covered with lids perforated with two small holes to allow for ventilation. The cups were then held under fluorescent light (12 hours light: 12 hours dark) at 24°-26° C. for 48 hours. An untreated check and an appropriate standard were included in each test. Two replicates were run for each chemical treatment. The unaffected larvae from the soil of each cup were extracted by placing the contents of each cup into a modified Berlese polyethylene funnel fitted with an 18-mesh screen. The funnels were placed over containers of an aqueous detergent solution. Incandescent lights (100 watts) were placed 36 cm above the soil in each funnel. The heat from these lights slowly dried the soil causing larvae that had not been affected by the candidate insecticide to emerge from the soil and drop out of the funnel into the detergent solution. The percent mortality was determined by comparing the number of live larvae in the detergent solution with the total number of larvae infested during the initiation of the test. Percent mortality was determined in this manner for each concentration.

[7] = system: tobacco budworm; assay: Foliar evaluation, tobacco budworm; assay type: in vivo; conditions: Heliothis virescens, 48 hours, read-out: % Kill TBW; for mortality at 100 ppm: rate 100 ppm; for mortality at 500 ppm: rate 500 ppm
Procedure: as §1, §2, §3

Compound: CCOc1ccc(C(C=CCc2cccc(-c3ccccc3)c2C)C2CC2)cc1 (stereo not shown) [Compound 9]
- mortality at 1000 ppm ([1]; rate 1000 ppm): 100%
- mortality at 1000 ppm ([2]; rate 1000 ppm): 100%
- mortality at 1000 ppm ([3]; rate 1000 ppm): 100%
- mortality at 1000 ppm ([4]; rate 1000 ppm): 90%

Compound: Clc1ccc(C(C=CCc2cccc(Oc3ccccc3)c2)C2CC2)cc1 (stereo not shown) [Compound 1]
- mortality at 100 ppm [1]: 75%
- LC50 at 48 h [5]: 3 to 5 µg/mL (≈ 8 to 13.3 µM)
- mortality at 7.5 ppm [6]: 45%
- mortality at 100 ppm [7]: 100%
- mortality at 100 ppm [2]: 2%
- mortality at 100 ppm [3]: 100%
- mortality at 100 ppm [4]: 100%

Compound: Fc1ccc(CC=CC(c2ccc(OC(F)(F)F)cc2)C2CC2)cc1Oc1ccccc1 (stereo not shown) [Compound 6, 1-cyclopropyl-1-(4-trifluoromethoxyphenyl)-4-(4-fluoro-3-phenoxyphenyl)-2-butene]
- mortality at 100 ppm [1]: 85%
- LC50 at 48 h [5]: 9 µg/mL (≈ 20.3 µM)
- mortality at 7.5 ppm [6]: 70%
- mortality at 100 ppm [7]: 100%
- mortality at 100 ppm [2]: 99%
- mortality at 100 ppm [3]: 100%
- mortality at 100 ppm [4]: 100%

Compound: Fc1ccc(CC=CC(c2ccc(C(F)(F)F)cc2)C2CC2)cc1Oc1ccccc1 (stereo not shown) [Compound 4]
- mortality at 100 ppm [1]: 90%
- mortality at 100 ppm [7]: 100%
- mortality at 100 ppm [2]: 90%
- mortality at 100 ppm [3]: 100%
- mortality at 100 ppm [4]: 100%

Compound: Cc1c(CC=CC(c2ccc(Cl)cc2)C2CC2)cccc1-c1ccccc1 (stereo not shown) [Compound 7]
- mortality at 500 ppm [1]: 60%
- mortality at 7.5 ppm [6]: 50%
- mortality at 500 ppm [7]: 100%
- mortality at 500 ppm [2]: 7%
- mortality at 500 ppm [3]: 100%
- mortality at 500 ppm ([4]; rate 500 ppm): 100%

Compound: CC1(C)C(C=C(Cl)Cl)C1C(=O)OC(C#N)c1cccc(Oc2ccccc2)c1 (stereo not shown) [cypermethrin, reference compound]
- LC50 at 48 h [5]: 0.02 µg/mL (≈ 0.048 µM)

Compound: Fc1ccc(CC=CC(c2ccc(Cl)cc2)C2CC2)cc1Oc1ccccc1 (stereo not shown) [Compound 2, 1-cyclopropyl-1-(4-chlorophenyl)-4-(4-fluoro-3-phenoxyphenyl)-2-butene]
- mortality at 100 ppm [1]: 80%
- LC50 at 48 h [5]: 7.5 to 10 µg/mL (≈ 19.1 to 25.5 µM)
- mortality at 7.5 ppm [6]: 45%
- mortality at 100 ppm [7]: 100%
- mortality at 100 ppm [2]: 0%
- mortality at 100 ppm [3]: 100%
- mortality at 100 ppm [4]: 100%

Compound: FC(F)(F)Oc1ccc(C(C=CCc2cccc(Oc3ccccc3)c2)C2CC2)cc1 (stereo not shown) [Compound 5]
- mortality at 100 ppm [1]: 100%
- LC50 at 48 h [5]: 1 to 3 µg/mL (≈ 2.36 to 7.07 µM)
- mortality at 7.5 ppm [6]: 50%
- mortality at 100 ppm [7]: 80%
- mortality at 100 ppm [2]: 100%
- mortality at 100 ppm [3]: 85%
- mortality at 100 ppm [4]: 100%

Compound: FC(F)(F)c1ccc(C(C=CCc2cccc(Oc3ccccc3)c2)C2CC2)cc1 (stereo not shown) [Compound 3]
- mortality at 100 ppm [1]: 45%
- LC50 at 48 h [5]: 5 to 7.5 µg/mL (≈ 12.2 to 18.4 µM)
- mortality at 7.5 ppm [6]: 60%
- mortality at 100 ppm [7]: 100%
- mortality at 100 ppm [2]: 90%
- mortality at 100 ppm [3]: 90%
- mortality at 100 ppm [4]: 100%

Compound: Cc1c(CC=CC(c2ccc(OCC3CC3)cc2)C2CC2)cccc1-c1ccccc1 (stereo not shown) [Compound 8]
- mortality at 500 ppm [1]: 5%
- mortality at 500 ppm [7]: 22%
- mortality at 500 ppm [2]: 0%
- mortality at 500 ppm [3]: 100%
